In a melting point compilation (Tetko et al.; mined from patent text by program, amines drawn as free bases though some values may be those of a salt):

| Structure (SMILES) | melting point [°C] |
| --- | --- |
| O=C(O)C1=Cc2ccccc2SC1C(F)(F)F (centres undefined) | 187 to 190 |
| CCCCCCc1cc2c(s1)NC(=O)CN=C2c1ccccc1C | 162 to 163 |
| O=C(NCCCCCC(=O)C(F)(F)F)OCC1c2ccccc2-c2ccccc21 | 83 to 88 |
| CCOC(=O)c1cnn(-c2cccc(Cl)c2)c1N | 115 to 117 |
| CCCCCCCCC1C=CC(/C=C(\C)c2ccc(C(=O)O)o2)=C2N=C3CCCCC3=C21 (centres undefined) | 160 to 162 |
| CCCCCC(C)C(C)c1cc(O)c2c(c1)oc(=O)c1ccncc12 (centres undefined) | 122 to 123 |
| O=C(O)Cc1c(Cl)nc(-c2ccccc2)n1Cc1ccccc1 | 161 to 163 |
| CC(C(=O)N(C)C)n1ccc(-c2cccc([N+](=O)[O-])c2)n1 (centres undefined) | 117 to 119 |
| C[C@]1(COc2ccc(N3CCN(c4ccc(OC(F)(F)F)cc4)CC3)cc2)Cn2cc([N+](=O)[O-])nc2O1 | 262 to 265 |
| O=C(Nc1n[nH]c2cc(Cl)ccc12)c1ccccn1 | 177 |
| CC(=NNc1ccc([N+](=O)[O-])cc1)c1ccccc1 | 186 to 188 |
| COC(=O)C(Cl)=Cc1ccc(Cl)cc1 | 78 to 80 |
| Cc1c(Cc2ccccc2)c(=O)oc2cc(OCC3=NNN(C)N3)cc(OCC3=NNN(C)N3)c12 | 71 to 76 |
| ClC[Si](c1ccccc1)(c1ccccc1)c1ccccc1 | 112 to 115 |
| Cc1cc2c(cc1S(N)(=O)=O)S(=O)(=O)NC(c1cccnn1)=N2 | 330 to 335 |
| O=C(Nc1ccc(-n2nc(C(F)(F)F)cc2C(F)(F)F)cc1)C1CC1 | 204 to 205 |
| CCCCCCCCCC(CC)SCCCCCCCCCCN1C(=O)CCC1=O (centres undefined) | 86 |
| COC(=O)Cn1ccnc1Cc1ccccc1 | 70.8 |
| O=C1N(Cc2ccc(C(F)(F)F)nc2)c2ccccc2C12COc1cc3c(cc12)OCCO3 (centres undefined) | 204 to 207 |
| CN1C(=O)C(NC(=O)NC23CC4CC(CC(C4)C2)C3)N=C(c2ccccc2)c2ccccc21 (centres undefined) | 264 to 265 |
| Cc1ccc(S(=O)(=O)n2ccc3cc(F)cnc32)cc1 | 160 |

| Structure (SMILES) | melting point [°C] |
| --- | --- |
| O=C(/C=C/c1ccc(CN2CCCC2)cc1)Nc1ccc(Br)cc1 | 184 to 186 |
| COC(=O)c1nc(Br)ccc1O | 115 to 117 |
| c1cncc(Nc2nnc(Cc3ccncc3)c3ccccc23)c1 | 137 to 139 |
| CCCCc1c(C(=O)O)c2ccccc2n1C | 163 to 165 |
| CCC(=O)c1cnc(C(=O)CC)cn1 | 112 |
| CCCn1c(=O)n(-c2ccc3c(c2)OCO3)c2ncc(N)cc21 | 177 to 178 |
| CCCCCCCc1ncc(CO)[nH]1 | 82 to 84 |
| CCC1(CC(=O)OC)OCCc2c1[nH]c1c(CCO)c(F)ccc21 (centres undefined) | 101 to 103 |
| O=C(CCl)COc1cccc(C(F)(F)F)c1 | 38 to 39 |
| CNC1CCN(c2nncc3cc(OC)c(OC)cc23)CC1 | 194 to 196 |
| C=CC(=O)N1CC[C@H]2[C@H]1[C@@H](CCC)C(=O)N2S(C)(=O)=O (relative stereo) | 177 to 181 |
| CCCCc1nn(-c2cc(NC(=O)CC)ccc2Cl)c(=O)n1Cc1ccc(-c2ccccc2S(=O)(=O)NC(=O)c2ccccc2Cl)cc1F | > 152 |
| COc1cc(Nc2nccc(NCc3ccccc3)n2)cc(OC)c1OC | 135 to 136 |
| CCCCCCCOc1ccc(C(=O)O)c(C)c1 | 74 to 76 |
| COc1cn2nc(Cl)ccc2n1 | 134 to 136 |
| O=Cc1csc(N2CCOCC2)n1 | 107 to 108 |
| COc1cc(OCCOc2ccccc2)c2c(=O)[nH]c(-c3cc(C)nc(C)c3)nc2c1 | 172 to 173 |
| Clc1c(-c2ccccc2)noc1NCC#CI | 133 to 135 |
| Cc1oc(-c2ccccc2)nc1COc1ccc(Cn2cc(CCCCC(=O)O)c(-c3ccccc3)n2)cc1 | 109 to 110 |
| CCCCCCCCCCCCCCCCCCN1C(=O)C2(CCCCC2)NC2(CCCCC2)C1=O | 39 to 40 |
| O=C(c1ccc(-c2ccc(=O)n(-c3ccc(F)cc3)n2)cc1)N1CCC[C@H]1CN1CCCC1 | 177 |

The next lines start with the values.

| melting point [°C] | Structure (SMILES) |
| --- | --- |
| 150 to 151 | CCCSc1ccc(NS(=O)(=O)c2cccs2)c2[nH]c(C(=O)OCC)cc12 |
| 189 to 191 | CCOC(=O)n1c(C(=O)c2cccc(Cl)c2)c(NC(=O)CC)c2ccc(Cl)cc21 |
| 71 to 72 | CC(C)[C@H](OCc1ccccc1)[C@H]1[C@H]([N+](=O)[O-])[C@H](c2ccccc2)N[C@@H]1C(=O)NCC(=O)O |
| 118 to 119 | CCCCc1nc2c(N)nc3ccccc3c2n1OC(C)C |
| > 300 | CC(C)(C)OC(=O)c1ccc(C(=O)NS(=O)(=O)c2ccc(Cl)cc2)cc1 |
| 160 to 161 | COc1ccc2c(c1)c(CN(O)C(C)=O)c(C)n2C(=O)c1ccc(Cl)cc1 |
| 190 to 192 | N#CCOC(=O)c1cc(SCc2ccccc2)c(Cc2ccccc2)c(S(N)(=O)=O)c1 |
| 44.5 to 45 | COC(=O)CCCc1nc(-c2ccc(C)cc2)oc1C(F)(F)F |
| 156 to 158 | CCN(C(=O)C(NS(=O)(=O)c1c(C)cc(C)cc1C)C(C)C)c1ccccc1 (centres undefined) |
| 209 to 210 | Cc1c(C)c2c(c(C)c1NC(=O)CC(C)(C)C)C(c1ccc(C(C)CC(=O)O)cc1)CO2 (centres undefined) |
| 148 to 150 | CC(C)(CO)COc1ccc(NC(=O)c2csc3c2CCCC3)cc1C#N |
| 65.2 to 74.5 | CC(=O)Oc1c(C(C)(C)C)cc(C=O)cc1C(C)(C)C |
| 300 | CC(=O)Nc1ccc(-c2c(Cl)c(CN3C(=O)CCC3=O)nc3sc4c(c23)CCNC4)cc1 |
| 143 to 144 | Cc1cc(-c2[nH]c3ccccc3c2C)cc(C)c1O |
| 156 to 157 | CCC(C)(C)c1cccc(C(=O)NN)c1O |
| 142 to 144 | CC(C)c1ccc(F)c(C(C)C)c1NC(=O)CN1CCN(CCSc2nc3ccccc3o2)CC1 |
| 175 | CCC(Cc1c(C)cc(C(C)(C)C)c(O)c1C)(C(=O)OC1CC(C)(C)NC(C)(C)C1)C(=O)OC1CC(C)(C)NC(C)(C)C1 |
| 221 to 224 | COc1nc(C)nc(NC(=O)NS(=O)(=O)c2ccccc2-c2cnn(C)c2)n1 |
| 70 to 72 | COC(=O)c1ccc(S(C)(=O)=O)c(C(=O)NC(C)(C)CO)c1Cl |
| 170 to 173 | Cc1ccc(C(CCCOC(=O)Nc2ccccc2)=NNC(N)=S)cc1 |
| 216 to 218 | O=C1CCC(N2C(=O)c3cccc(CNC(=O)Nc4ccc5c(c4)OCO5)c3C2=O)C(=O)N1 (centres undefined) |
| 144 to 148 | COC1(C=CCOc2ccc3c(-c4ccc(F)cc4)c4c(cc3c2)C(=O)OC4)CCOCC1 |
| 74 to 76 | CC(C)[C@H](NC(=O)N(C)Cc1csc(C2CCC2)n1)C(=O)N[C@@H](Cc1ccccc1)C[C@H](O)[C@H](Cc1ccccc1)NC(=O)OCc1cncs1 |
| 172 to 173 | COC(=O)CCc1cc(NC(=O)c2ccc(C(=O)Nc3cc(CCC(=O)OC)cc(C(C)(C)C)c3O)s2)c(O)c(C(C)(C)C)c1 |
| 148 to 150 | CC(C)(C)c1cc(CCc2ccccc2NC(=O)N2CCc3ccccc3C2)cc(C(C)(C)C)c1O |
| 162 | Cc1c(C(C)CC(=O)O)n(Cc2ccc(Cl)cc2)c2ccc(O)cc12 (centres undefined) |
| 132 to 133 | COc1ccc(-c2ccc(C(C)O)cc2)cc1 (single isomer, unassigned; (+)) |
